Results taken from patent US8889874B2, “Imidazolone-chalcone derivatives as potential anticancer agent and process for the preparation thereof” (Council of Scientific and Industrial Research, priority 2010, dated 2014).
Like-named read-outs stand apart in the source and are kept apart here.

Tests used:
Assay in all cases: NCI anticancer screen, SRB assay, 48 h
Format in all cases: cell-based, human
RXF 393 (renal) = test system: RXF 393 (renal)
Outline: (§1)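 Compounds were tested across fifty three human cancer cell lines from nine tumour types. Each line got a dose-response curve of at least five concentrations at 10-fold dilutions, with continuous drug exposure and sulforhodamine B protein staining to estimate viability or growth.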

SK-MEL-28 (melanoma) = test system: SK-MEL-28 (melanoma)
Outline: as §1

MCF7 (breast) = test system: MCF7 (breast)
Outline: as §1

MALME-3M (melanoma) = test system: MALME-3M (melanoma)
Outline: as §1

SW-620 (colon) = test system: SW-620 (colon)
Outline: as §1

[1] = test system: K-562 (leukemia cell line)
Outline: as §1

SF-295 (CNS) = test system: SF-295 (CNS)
Outline: as §1

OVCAR-8 (ovarian) = test system: OVCAR-8 (ovarian)
Outline: as §1

[2] = test system: NCI-H226 (non-small cell lung)
Outline: as §1

U251 (CNS) = test system: U251 (CNS)
Outline: as §1

UACC-62 (melanoma) = test system: UACC-62 (melanoma)
Outline: as §1

SNB-19 (CNS) = test system: SNB-19 (CNS)
Outline: as §1

M14 (melanoma) = test system: M14 (melanoma)
Outline: as §1

ACHN (renal) = test system: ACHN (renal)
Outline: as §1

LOX IMVI (melanoma) = test system: LOX IMVI (melanoma)
Outline: as §1

786-0 (renal) = test system: 786-0 (renal)
Outline: as §1

UACC-257 (melanoma) = test system: UACC-257 (melanoma)
Outline: as §1

MDA-MB-231/ATCC (breast) = test system: MDA-MB-231/ATCC (breast)
Outline: as §1

SK-OV-3 (ovarian) = test system: SK-OV-3 (ovarian)
Outline: as §1

NCI/ADR-RES (ovarian) = test system: NCI/ADR-RES (ovarian)
Outline: as §1

OVCAR-4 (ovarian) = test system: OVCAR-4 (ovarian)
Outline: as §1

[3] = test system: NCI-H460 (non-small cell lung)
Outline: as §1

SNB-75 (CNS) = test system: SNB-75 (CNS)
Outline: as §1

HT29 (colon) = test system: HT29 (colon)
Outline: as §1

HCT-116 (colon) = test system: HCT-116 (colon)
Outline: as §1

[4] = test system: RPMI-8226 (leukemia cell line)
Outline: as §1

HS 578T (breast) = test system: HS 578T (breast)
Outline: as §1

SF-268 (CNS) = test system: SF-268 (CNS)
Outline: as §1

[5] = test system: HOP-62 (non-small cell lung)
Outline: as §1

[6] = 48 h exposure, SRB, read-out: GI50
[7] = Homo sapiens, 48 h exposure, SRB, read-out: GI50
[8] = Homo sapiens, read-out: pGI50 (-log of molar concentration causing 50% inhibition of net cell growth) (converted)

Compound: COc1ccc(-c2cn(-c3cccc(C(=O)/C=C/c4cc(OC)c(OC)c(OC)c4)c3)c(=O)[nH]2)cc1 [5b, 4-(4-methoxyphenyl)-1-3-[(E)-3-(3,4,5-trimethoxyphenyl)-2-propenoyl]phenyl-2,3-dihydro-1H-2-imidazolone]
- GI50 (RXF 393 (renal); RXF 393, 48 h exposure, SRB, read-out: GI50): 1.92 µM
- pGI50 (-log of molar concentration causing 50% inhibition of net cell growth) (RXF 393 (renal); RXF-393): 5.72
- pGI50 (-log of molar concentration causing 50% inhibition of net cell growth) (SK-MEL-28 (melanoma)): 5.69
- GI50 (SK-MEL-28 (melanoma); [6]): 2.03 µM
- pGI50 (-log of molar concentration causing 50% inhibition of net cell growth) (MCF7 (breast)): 6.36
- GI50 (MCF7 (breast); [6]): 0.44 µM
- pGI50 (-log of molar concentration causing 50% inhibition of net cell growth) (MALME-3M (melanoma); MALME-3M): 5.75
- GI50 (MALME-3M (melanoma); MALME-3M, 48 h exposure, SRB, read-out: GI50): 1.79 µM
- pGI50 (-log of molar concentration causing 50% inhibition of net cell growth) (SW-620 (colon)): 6.35
- GI50 (SW-620 (colon); [6]): 0.45 µM
- pGI50 (-log of molar concentration causing 50% inhibition of net cell growth) [1]: 5.90
- GI50 [1, 6]: 1.27 µM
- pGI50 (-log of molar concentration causing 50% inhibition of net cell growth) (SF-295 (CNS)): 5.31
- GI50 (SF-295 (CNS); [6]): 4.95 µM
- pGI50 (-log of molar concentration causing 50% inhibition of net cell growth) (OVCAR-8 (ovarian)): 5.60
- GI50 (OVCAR-8 (ovarian); [6]): 2.53 µM
- pGI50 (-log of molar concentration causing 50% inhibition of net cell growth) [2]: 4.45
- GI50 [2, 6]: 35.2 µM
- pGI50 (-log of molar concentration causing 50% inhibition of net cell growth) (U251 (CNS)): 6.06
- GI50 (U251 (CNS); [6]): 0.88 µM
- pGI50 (-log of molar concentration causing 50% inhibition of net cell growth) (UACC-62 (melanoma)): 5.69
- GI50 (UACC-62 (melanoma); [6]): 2.06 µM
- pGI50 (-log of molar concentration causing 50% inhibition of net cell growth) (SNB-19 (CNS)): 5.36
- GI50 (SNB-19 (CNS); [6]): 4.38 µM
- pGI50 (-log of molar concentration causing 50% inhibition of net cell growth) (M14 (melanoma)): 5.73
- GI50 (M14 (melanoma); [6]): 1.85 µM
- pGI50 (-log of molar concentration causing 50% inhibition of net cell growth) (ACHN (renal)): 5.74
- GI50 (ACHN (renal); [6]): 1.82 µM
- pGI50 (-log of molar concentration causing 50% inhibition of net cell growth) (LOX IMVI (melanoma)): 6.14
- GI50 (LOX IMVI (melanoma); [6]): 0.72 µM
- pGI50 (-log of molar concentration causing 50% inhibition of net cell growth) (786-0 (renal)): 5.79
- GI50 (786-0 (renal); [6]): 1.61 µM
- pGI50 (-log of molar concentration causing 50% inhibition of net cell growth) (UACC-257 (melanoma)): 5.52
- GI50 (UACC-257 (melanoma); [6]): 3.04 µM
- pGI50 (-log of molar concentration causing 50% inhibition of net cell growth) (MDA-MB-231/ATCC (breast)): 5.26
- GI50 (MDA-MB-231/ATCC (breast); [6]): 5.48 µM
- pGI50 (-log of molar concentration causing 50% inhibition of net cell growth) (SK-OV-3 (ovarian)): 5.34
- GI50 (SK-OV-3 (ovarian); [6]): 4.6 µM
- pGI50 (-log of molar concentration causing 50% inhibition of net cell growth) (NCI/ADR-RES (ovarian); NCI/ADR-RES): 5.77
- GI50 (NCI/ADR-RES (ovarian); NCl/ADR-RES, 48 h exposure, SRB, read-out: GI50): 1.7 µM
- pGI50 (-log of molar concentration causing 50% inhibition of net cell growth) (OVCAR-4 (ovarian)): 5.45
- GI50 (OVCAR-4 (ovarian); [6]): 3.57 µM
- pGI50 (-log of molar concentration causing 50% inhibition of net cell growth) [3]: 5.81
- GI50 [3, 6]: 1.56 µM
- pGI50 (-log of molar concentration causing 50% inhibition of net cell growth) (SNB-75 (CNS)): 5.34
- GI50 (SNB-75 (CNS); [6]): 4.59 µM
- pGI50 (-log of molar concentration causing 50% inhibition of net cell growth) (HT29 (colon)): 5.89
- GI50 (HT29 (colon); [6]): 1.28 µM
- pGI50 (-log of molar concentration causing 50% inhibition of net cell growth) (HCT-116 (colon)): 6.43
- GI50 (HCT-116 (colon); [6]): 0.37 µM
- pGI50 (-log of molar concentration causing 50% inhibition of net cell growth) [4]: 6.04
- GI50 [4, 6]: 0.92 µM
- pGI50 (-log of molar concentration causing 50% inhibition of net cell growth) (HS 578T (breast)): 5.47
- GI50 (HS 578T (breast); [6]): 3.39 µM
- pGI50 (-log of molar concentration causing 50% inhibition of net cell growth) (SF-268 (CNS)): 5.49
- GI50 (SF-268 (CNS); [6]): 3.21 µM
- pGI50 (-log of molar concentration causing 50% inhibition of net cell growth) [5]: 5.23
- GI50 [5, 6]: 5.91 µM

Compound: O=C(/C=C/c1cccc(O)c1)c1cccc(-n2cc(-c3ccc4ccccc4c3)[nH]c2=O)c1 [12b, 1-3-[(E)-3-(3-hydroxyphenyl)-2-propenoyl]phenyl-4-(2-naphthyl)-2,3-dihydro-1H-2-imidazolone]
- GI50 (RXF 393 (renal); Homo sapiens, RXF 393, 48 h exposure, SRB, read-out: GI50): 1.41 µM
- GI50 (RXF 393 (renal); Homo sapiens, RXF-393, read-out: pGI50 (-log of molar concentration causing 50% inhibition of net cell growth) (converted)): 1.41 µM
- GI50 (SK-MEL-28 (melanoma); [7]): 3.79 µM
- GI50 (SK-MEL-28 (melanoma); [8]): 3.8 µM
- GI50 (MCF7 (breast); [7]): 0.47 µM
- GI50 (MCF7 (breast); [8]): 0.468 µM
- GI50 (MALME-3M (melanoma); Homo sapiens, Malme-3M, read-out: pGI50 (-log of molar concentration causing 50% inhibition of net cell growth) (converted)): 2.09 µM
- GI50 (MALME-3M (melanoma); Homo sapiens, MALME-3M, 48 h exposure, SRB, read-out: GI50): 2.08 µM
- GI50 (SW-620 (colon); [7]): 0.22 µM
- GI50 (SW-620 (colon); [8]): 0.219 µM
- GI50 ([1]; Homo sapiens, K562, 48 h exposure, SRB, read-out: GI50): 1.43 µM
- GI50 ([1]; Homo sapiens, K562, read-out: pGI50 (-log of molar concentration causing 50% inhibition of net cell growth) (converted)): 1.45 µM
- GI50 (SF-295 (CNS); [7]): 1.44 µM
- GI50 (SF-295 (CNS); [8]): 1.45 µM
- GI50 (OVCAR-8 (ovarian); [7]): 2.33 µM
- GI50 (OVCAR-8 (ovarian); [8]): 2.34 µM
- GI50 [2, 7]: 2.43 µM
- GI50 [2, 8]: 2.45 µM
- GI50 (U251 (CNS); Homo sapiens, U-251, 48 h exposure, SRB, read-out: GI50): 1.09 µM
- GI50 (U251 (CNS); Homo sapiens, U-251, read-out: pGI50 (-log of molar concentration causing 50% inhibition of net cell growth) (converted)): 1.1 µM
- GI50 (UACC-62 (melanoma); [7]): 1.8 µM
- GI50 (UACC-62 (melanoma); [8]): 1.82 µM
- GI50 (SNB-19 (CNS); [7]): 1.32 µM
- GI50 (SNB-19 (CNS); [8]): 1.32 µM
- GI50 (M14 (melanoma); [7]): 1.49 µM
- GI50 (M14 (melanoma); [8]): 1.48 µM
- GI50 (ACHN (renal); [7]): 1.57 µM
- GI50 (ACHN (renal); [8]): 1.58 µM
- GI50 (LOX IMVI (melanoma); [7]): 0.85 µM
- GI50 (LOX IMVI (melanoma); [8]): 0.851 µM
- GI50 (786-0 (renal); [7]): 1.74 µM
- GI50 (786-0 (renal); [8]): 1.74 µM
- GI50 (UACC-257 (melanoma); [7]): 4.13 µM
- GI50 (UACC-257 (melanoma); [8]): 4.17 µM
- GI50 (MDA-MB-231/ATCC (breast); [7]): 1.66 µM
- GI50 (MDA-MB-231/ATCC (breast); [8]): 1.66 µM
- GI50 (SK-OV-3 (ovarian); [7]): 2.15 µM
- GI50 (SK-OV-3 (ovarian); [8]): 2.14 µM
- GI50 (NCI/ADR-RES (ovarian); Homo sapiens, NCI/ADR-RES, NCl/ADR-RES, 48 h exposure, SRB, read-out: GI50): 1.55 µM
- GI50 (NCI/ADR-RES (ovarian); Homo sapiens, NCI/ADR-RES, read-out: pGI50 (-log of molar concentration causing 50% inhibition of net cell growth) (converted)): 1.55 µM
- GI50 (OVCAR-4 (ovarian); [7]): 1.68 µM
- GI50 (OVCAR-4 (ovarian); [8]): 1.7 µM
- GI50 [3, 7]: 1.67 µM
- GI50 [3, 8]: 1.66 µM
- GI50 (SNB-75 (CNS); [7]): 1.88 µM
- GI50 (SNB-75 (CNS); [8]): 1.86 µM
- GI50 (HT29 (colon); Homo sapiens, HT-29, 48 h exposure, SRB, read-out: GI50): 1.54 µM
- GI50 (HT29 (colon); Homo sapiens, HT-29, read-out: pGI50 (-log of molar concentration causing 50% inhibition of net cell growth) (converted)): 1.55 µM
- GI50 (HCT-116 (colon); [7]): 0.4 µM
- GI50 (HCT-116 (colon); [8]): 0.398 µM
- GI50 [4, 7]: 1.67 µM
- GI50 [4, 8]: 1.66 µM
- GI50 (HS 578T (breast); [7]): 2.01 µM
- GI50 (HS 578T (breast); [8]): 2 µM
- GI50 (SF-268 (CNS); [7]): 1.73 µM
- GI50 (SF-268 (CNS); [8]): 1.74 µM
- GI50 [5, 7]: 2.26 µM
- GI50 [5, 8]: 2.24 µM
